This note sets out measurements from patent US9180163B2, “Parstatin peptides” (priority 2009, dated 2015).

In assay [1] the test system is HUVEC cells. Description: [3H]-thymidine incorporation (DNA synthesis). It counts as cell-based, human. The settings on record: serum, bFGF or VEGF; comparison peptides 10 μM. The method, then:
The ability of parstatin (1-41) to inhibit DNA synthesis of endothelial cells was assessed in thymidine incorporation assays. HUVEC cells were grown until 60-80% confluent in 24-well plates. Cells were treated with indicated peptides in serum-free medium containing either 0.5% BSA, or VEGF, or bFGF, or medium containing 5% FBS, or epidermal growth factor (EGF), or heparin-binging EGF (HB-EGF) for 18 hours. All cells were pulsed with 0.5 μCi/ml [3H]-thymidine (ICN Biomedicals Inc., Irvine Calif.) for additional 6 h. Radioactivity incorporated into DNA was determined in liquid scintillation counter.
Background: Incorporation of labelled thymidine or its analogues reports DNA synthesis.

Assay [2] relates to corneas of Sprague-Dawley rats. Description: corneal histopathology after chemical burn (vessels, neutrophils). It counts as in vivo, rat. Conditions: 2×100 μg, day 7. The method, then:
After the above-described processes were performed, the rats were sacrificed (7 days) and the eyes were excised. All eyes were sectioned (4 μm) and stained with hematoxylin-eosin. Two independent pathologists, in a blinded manner, evaluated the microvessel density and the inflammatory cell infiltration in each slide. Total corneal vascular vessels and neutrophils were counted at 200× in seven representative stained tissue sections for each eye, covering all cornea area and having a similar distance from the central burn.

The subject of assay [3] is HUVEC cells. Description: modified Boyden's chamber cell migration assay. It counts as cell-based, human. Conditions: toward 5% FBS, 6 h; other peptides 10 μM. The method, then:
HUVEC cell migration was assessed using a modified Boyden's chamber assay, i.e., in Transwell cell culture chambers (Corning Life Sciences, Acton, Mass.). Briefly, polycarbonate filters with 8 μm pores were used to separate the upper and the lower chambers. Cells were added to the upper compartment at a density of 10,000 cells/100 μl in serum-free medium containing 0.5% BSA and incubated for 6 h. Directional migration (chemotaxis) in the lower chamber was induced by addition of medium containing 5% FBS to the lower chamber. Where indicated parstatin or other peptides were added to lower chamber.
Cells on the filters were fixed and stained. The non-migrated cells (cells in upper surface) were removed by wiping with cotton swabs. The cells on the lower surface were counted manually under microscope in six predetermined fields. Parstatin (1-41) attenuated chemotactic cell migration through microporous membrane in response to serum (FIG. 3C). When human parstatin was combined with 5% FBS, the number of migrated cells was reduced in concentration-dependent manner.

For assay [4], the system named is HUVEC cells. Description: Fibrin gel in vitro angiogenesis assay. Conditions: VEGF/bFGF-induced, 24 h; other peptides 10 μM. It counts as cell-based, human. The method, then:
The ability of endothelial cells to form three-dimensional structures was analyzed using a Fibrin gel in vitro angiogenesis assay kit (Chemicon International Inc. Temecula, Calif.). Fibrin gels were formed in 48-well plates by mixing fibrinogen and thrombin solutions, according to manufacturer instructions. Cells (40,000 cells/well) were then added and cultured in medium containing 2% FBS for 18 h. After the addition of a second layer of fibrin gel, endothelial cells sandwiched within fibrin gels were cultured in serum-free medium containing 0.5% bovine serum albumin (BSA) and the combination of VEGF/bFGF for 24 h. Where indicated, parstatin (1-41) or other indicated peptides were added. Capillary-like network was photographed and measured.

The test system of assay [5] is chick chorioallontoic membrane (CAM). It is filed as in vivo. The settings on record: 10 nmoles, 48 h. The method, then:
The in vivo chick chorioallontoic membrane (CAM) angiogenesis model was used to evaluate the effect of parstatin (1-41) in angiogenesis. On incubation day 9 of fertilized chicken eggs, an O-ring (1 cm^2) was placed on the surface of the CAM and the vehicle or the indicated substances were placed inside this restricted area. After 48 h, CAMs were fixed in saline-buffered formalin, photographed, and analyzed using the Scion Image software (Scion Image Release Beta 4.0.2 software; Scion Corporation, Frederick, Md.). Image analysis was performed on at least 18 eggs for each group. Vessel number and length were evaluated by pixel counting, and the results expressed as mean percentage of control ±SE. Statistical analyses were performed using a Student's t test.

For assay [6], the system named is Erk1/2 (p42/44 MAPK) in HUVEC cells. Description: Erk1/2 phosphorylation immunoblot (MAP kinase pathway). It is filed as cell-based, human. The settings on record: pretreatment 1 h, 10 μM; stimulated by FBS, bFGF or VEGF. The method, then: The MAPK (Erk1/2, p42/44) cascade mediates mitogenesis. […] HUVEC cells were cultured in 35 mm tissue culture dishes. After reaching 80% confluency, cells were growth factor-starved and subsequently stimulated for 10 min with vehicle or indicated agents. In combination experiments, cells were pretreated with parstatin or other peptides for 10 to 60 min.
Attached cells were lysed with Laenmli sample buffer, resolved in 10% SDS-PAGE, and transferred to nitrocellulose membranes. Membranes were incubated with primary antibodies against phospho p42/44 mitogen-activated protein kinases (p-Erk1/2, New England Biolabs, UK) and p42/44 Erk1/2 (t-Erk1/2, New England Biolabs, UK). Membranes were then probed with secondary antibodies horseradish peroxidase-conjugated, and proteins were visualized by chemiluminescent detection.
For orientation: In western blotting, separated proteins are transferred to a membrane and probed.

In another assay the test system is caspase-3 in HUVEC cells. Description: caspase-3 activity colorimetric assay. The settings on record: 0.5% BSA, 24 h; mouse and scrambled 10 μM. It is filed as cell-based, human. The protocol: To further support the involvement of caspases in parstatin (1-41) pro-apoptotic effect, its effect on caspase-3 activation was examined using a commercially available kit (Promega, Madison, Wis.). The colorimetric substrate, Ac-DEVD-p-nitroanilide, is cleaved by caspase-3 to release yellow p-nitroanilide, was measured by absorbance at 405 nm to detect caspase activation.
HUVEC cells were grown in 60 mm tissue culture plates until approximately 80% confluency. Cells were treated in absence or in presence of 0.5% BSA or bFGF for 24 h in serum-free medium. Suspended and adherent cells were collected and lysed. Caspase-3 activity was measured by absorbance at 405 nm.

In assay [7] the test system is HUVEC cells. Description: MTT cell proliferation assay. It is filed as cell-based, human. The protocol:
Cell proliferation was evaluated using a 3-(4,5-[…])-2,5-diphenyltetrazolium bromide (MTT, Sigma-Aldrich, St. Louis, Mo.) assay. Endothelial cells (10,000/well) were seeded in 24-well tissue culture plates and incubated with growth medium for 24 h. Cells were then treated with the vehicle or the indicated peptides in medium containing 5% FBS for 1 to 3 days. After 24, 48, or 72 hours, MTT solution (5 mg/ml) was added to each well and incubated for 3 h at 37° C. The blue formazan crystals were solubilized by addition of DMSO and absorbance at 450 nm was recorded using a 96-well plate reader.
For orientation: Formazan colour is commonly taken as a measure of viable cells.

Assay [8] relates to HUVEC cells. The assay can be described thus: Matrigel capillary tube-like formation. It counts as cell-based, human. The settings on record: 5% FBS, 18 h, parstatin (1-41) 0.3 to 10 μM, other peptides 10 μM. The protocol: Primary human umbilical vein endothelial cells (HUVEC cells) were obtained from freshly delivered umbilical cords from caesarean births and were grown in M199 medium with 20% fetal bovine serum (FBS) supplemented with endothelial cell growth supplement and heparin. One of the most specific tests for angiogenesis is the measurement of the ability of endothelial cells to form capillary-like structures (i.e., tube formation). Tube formation is a multi-step process involving cell adhesion, migration and differentiation. Tube formation can be enhanced by use of Matrigel or fibrin clots to coat plastic culture dishes and it is an accepted model of angiogenesis.
Matrigel™ (Becton Dickinson Labware, N.J., USA) is a mixture of basement membrane components extracted from the Englebreth-Holm-Swarm tumor. […] Matrigel™ (250 μl) was added to each well of a 24-well plate and allowed to polymerize. A suspension of 40,000 HUVEC cells in M199 medium containing 5% FBS was added into each well coated with Matrigel™.
Cells were treated with increasing concentrations of human parstatin (1-41), scrambled parstatin, or parstatin (24-41) fragment. After 18 hours of incubation, the medium was removed, and the cells were fixed and stained, and tube-like structures were quantitated.

The subject of assay [9] is HUVEC cells. The assay can be described thus: cellular uptake of FITC-labeled peptides by flow cytometry. Conditions: 30 min exposure. It is filed as cell-based, human. The protocol: HUVEC cells in the exponential growth phase were exposed to various concentrations of parstatin (1-41)-FITC in serum-free medium containing 0.5% BSA. After incubation times ranging from 1 min to 60 min, cells were washed extensively. Washed cells were incubated for 10 min with trypsin at 37° C. to remove the cell surface-bound parstatin. Suspended cells were subsequently centrifuged, washed, and analyzed on FACS flow cytometer (EPICS XL-MCL; Coulter).
The uptake of a given parstatin (1-41)-FITC into cells was assessed by the change of the FITC-positive cell population compared with untreated control cell samples.

The test system of assay [10] is HUVEC cells. The assay can be described thus: cellular uptake by fluorescence microscopy. It counts as cell-based, human. The settings on record: FITC-labeled peptide. The protocol: 4′,6-Diamidino-2-phenylindole (DAPI) was used to stain nuclei of all cells. Cell fluorescence was imaged on a Nikon Eclipse TE2000-U microscope. FITC and DAPI were excited using 490-nm and 360-nm filters, respectively. The emission signals were sorted out using 514 and 460 filters for the FITC and DAPI, respectively. HUVEC cells were treated with 10 μM of parstatin (1-41)-FITC for different time intervals. […] FITC signal was detected as early as 5 min of cell exposure to parstatin (1-41)-FITC (FIG. 9C).

Ends that are not written are not given here. * marks the point of attachment. FITC = O=C1OC2(c3ccc(O)cc3Oc3cc(O)ccc32)c2ccc(NC(=S)*)cc21

For the substance “LRTNASLLVPFLTARAKSSGTREAADPPRLMCLRPLARRCG (Scrambled synthetic peptide) [scrambled parstatin, reference compound]”, the “DNA synthesis in HUVEC cells” value with HUVEC cells [1] was “did not cause any significant effect”. In assay [2], the “mean number (density) of vascular vessels per section” value was 77.17±3.11 and the numbers of neutrophils is reported as 39±2.54 cells/corneal section. For the same substance, the chemotactic cell migration result in the assay on HUVEC cells [3] was “without effect”. Moreover, the “capillary-like network (total capillary tube length) in fibrin gels” value in the assay with HUVEC cells [4] is reported as “did not affect”. Further, the “inhibition of the basal level of angiogenesis in CAMs” value in assay [5] is on record as “did not cause any significant effect”. Besides, the “activation of Erk1/2” value in [6] was “did not alter”. The caspase-3 activity result in the assay on caspase-3 in HUVEC cells is “without effect”. Also, in the assay on HUVEC cells [7] (10 μM), the HUVEC cell proliferation entry was “without effect”. The “tube formation on Matrigel” value in the assay on HUVEC cells [8] was “did not affect”.
As for “MGPRRLLIVALGLSLCGPLLSSRVPMSQPESERTDATVNPR [mouse parstatin, 1-41-amino acids cleaved N-terminal fragment of mouse PAR-1]”, the “DNA synthesis in HUVEC cells” value in the assay on HUVEC cells [1] was “significant, but less effective inhibitory effect”. The chemotactic cell migration result with HUVEC cells [3] is “significant inhibitory effect, but to a lower extent”. The “capillary-like network (total capillary tube length) in fibrin gels” value in the assay on HUVEC cells [4] was “less pronounced, but still significant, inhibitory effect”. For the same substance, the “activation of Erk1/2” value in assay [6] was “less pronounced effect”. Further, the caspase-3 activity entry with caspase-3 in HUVEC cells is listed as “moderate increase”. Also, the IC50 with HUVEC cells [7] (stimulus not given, read-out: half-maximal concentration, inhibiting cell proliferation) amounted to 20 µM. Also, the “tube formation on Matrigel” value is listed as “effective in inhibiting tube formation” with HUVEC cells [8] and “less pronounced, but still significant, inhibitory effect” in the assay on HUVEC cells [8] (listed as mouse parstatin (1-41)).
“TRARRPESKATNATLDPRK-FITC (TRARRPESKATNATLDPRK(FITC); also: FITC linked to the C-terminal lysine; listed as Homo sapiens) [parstatin (24-41)-FITC, FITC conjugated to human parstatin (24-41) fragment]”: the “fraction of FITC-positive cell population” value in the assay on HUVEC cells [9] is “minimal and comparable with that of control cells”. Also, the “cell fluorescence in microscope images” value in the assay on HUVEC cells [10] is given as “no fluorescence was observed”.
